What was measured:
Type in all cases: functional
Cavia porcellus [1] = assay: Inhibition of histamine-induced asthma-like syndrome in guinea pig assessed as time delay in appearance of coughing at 5 mg/kg, po treated 30 mins before histamine challenge (reference value: 6.13 mins)
Cavia porcellus [2] = assay: Inhibition of histamine-induced asthma-like syndrome in guinea pig assessed as time delay in appearance of anoxia at 5 mg/kg, po treated 30 mins before histamine challenge (reference value: 5.08 mins)
Cavia porcellus [3] = assay: Inhibition of histamine-induced asthma-like syndrome in guinea pig assessed as time delay in appearance of anoxia at 1.25 mg/kg, po treated 30 mins before histamine challenge (reference value: 5.08 mins)
Cavia porcellus [4] = assay: Inhibition of histamine-induced asthma-like syndrome in guinea pig assessed as time delay in appearance of coughing at 1.25 mg/kg, po treated 30 mins before histamine challenge (reference value: 6.13 mins)
Cavia porcellus [5] = assay: Inhibition of histamine-induced airway resistance in guinea pig administered intravenously 3 mins before histamine challenge; settings: iv

SMILES	Time (Cavia porcellus [1])	Time (Cavia porcellus [2])	Time (Cavia porcellus [3])	Time (Cavia porcellus [4])	ED50 (Cavia porcellus [5])
COCc1cc(C(O)CNC(C)C)ccc1O.Cl (configuration not stated)	15.25 min	10.38 min	–	–	–
CCOCc1cc(C(O)CNC(C)C)ccc1O.Cl (configuration not stated)	14.03 min	9.23 min	–	–	–
COCCOCc1cc(C(O)CNC(C)C)ccc1O.Cl (configuration not stated)	9.7 min	8.8 min	–	–	–
COCc1cc(C(O)CNC(C)(C)C)ccc1O.Cl (configuration not stated)	–	–	17.17 min	20 min	–
CCOCc1cc(C(O)CNC(C)(C)C)ccc1O.Cl (configuration not stated)	–	–	14.55 min	14.85 min	–
COCCOCc1cc(C(O)CNC(C)(C)C)ccc1O.Cl (configuration not stated)	15.18 min	13.8 min	6.75 min	7.88 min	–
CCOCCOCc1cc(C(O)CNC(C)(C)C)ccc1O.Cl (configuration not stated)	14.08 min	8.97 min	10.58 min	11.81 min	–
CC(C)(C)NCC(O)c1ccc(O)c(COCCO)c1.Cl (configuration not stated)	5.97 min	4.98 min	–	–	–
COCc1cc(C(O)CNC(C)C)cc(COC)c1O.Cl (configuration not stated)	–	–	10.71 min	11 min	–
COCc1cc(C(O)CNC(C)(C)C)cc(COC)c1O.Cl (configuration not stated)	–	–	7.35 min	7.78 min	–
COCc1cc(C(O)CNC(C)Cc2ccccc2)ccc1O.Cl (configuration not stated)	11.65 min	9.61 min	–	–	–
CCOCc1cc(C(O)CNC(C)Cc2ccccc2)ccc1O.Cl (configuration not stated)	13.92 min	12.57 min	–	–	–
COCc1cc(C(O)CNC(C)(C)Cc2ccccc2)ccc1O.Cl (configuration not stated)	11.83 min	11.35 min	–	–	–
CCOCc1cc(C(O)CNC(C)(C)Cc2ccccc2)ccc1O.Cl (configuration not stated)	16.08 min	15.98 min	–	–	–
COCc1cc(C(O)CNC(C)Cc2ccc3c(c2)OCO3)ccc1O.O=C(O)C(=O)O (configuration not stated)	–	–	10.43 min	12.05 min	–
COCc1cc(C(O)CNC(C)Cc2ccc(O)cc2)ccc1O.O=C(O)C(=O)O (configuration not stated)	–	–	19.97 min	20 min	–
COCc1cc(C(O)CNC(C)Cc2ccc(OC)cc2)ccc1O.O=C(O)/C=C/C(=O)O (configuration not stated)	–	–	19.1 min	20 min	2.75 µg/kg
CC(C)(C)NCC(O)c1ccc(O)c(CO)c1 (configuration not stated) [ALBUTEROL]	19.13 min	17.22 min	8.1 min	9.68 min	–
CC(C)NCC(O)c1ccc(O)c(O)c1 (configuration not stated) [ISOPROTERENOL]	17.67 min	12.71 min	6.82 min	8.02 min	–

— ChEMBL document CHEMBL3227996, “New bronchodilators. Synthesis and bronchodilating activity of some 3-(alkoxymethyl)-alpha-(N-substituted aminomethyl)-4-hydroxybenzyl alcohols” (1979)
